Counter-ions that a name gives are not always drawn.
How the values were obtained:
[1] = biological target: T1, human estrogen receptor α (hERα) (Homo sapiens, UniProt P03372); assay: antagonistic activity in CHO cells co-transfected with hERα, rat oxytocin promoter and luciferase reporter gene; format: cell-based; details: antagonism of 17β-estradiol-induced transactivation, CHO-hERα-RO-LUC; read-out: ERα pIC50 (converted)
T1 sequence (P03372 1-595): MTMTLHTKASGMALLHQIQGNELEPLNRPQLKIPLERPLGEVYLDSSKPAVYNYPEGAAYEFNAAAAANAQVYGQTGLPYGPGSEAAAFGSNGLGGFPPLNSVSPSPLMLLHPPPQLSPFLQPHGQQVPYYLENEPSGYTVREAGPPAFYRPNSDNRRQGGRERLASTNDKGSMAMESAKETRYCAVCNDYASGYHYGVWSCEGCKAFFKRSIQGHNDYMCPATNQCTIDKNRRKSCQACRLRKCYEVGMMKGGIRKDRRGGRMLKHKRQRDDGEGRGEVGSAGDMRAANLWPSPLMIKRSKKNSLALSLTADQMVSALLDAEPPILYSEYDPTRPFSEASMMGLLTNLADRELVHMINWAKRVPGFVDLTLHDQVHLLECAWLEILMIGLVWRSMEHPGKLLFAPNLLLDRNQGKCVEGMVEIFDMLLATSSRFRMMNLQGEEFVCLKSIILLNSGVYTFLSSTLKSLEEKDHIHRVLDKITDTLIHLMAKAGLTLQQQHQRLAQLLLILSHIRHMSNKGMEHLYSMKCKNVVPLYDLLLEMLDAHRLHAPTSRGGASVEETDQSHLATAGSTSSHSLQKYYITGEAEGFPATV
Description: The antagonistic activity of compounds on the estrogen receptors was determined in an in vitro bioassay with recombinant Chinese Hamster Ovary (CHO) cells stably co-transfected with the human estrogen receptor α (hERα), the rat oxytocin promoter (RO) and the luciferase reporter gene (LUC). […] The antagonistic efficacy, i.e. the amount of maximal inhibition of the 17β-estradiol activated receptor by a compound, is expressed as fraction relative to the maximal inhibition as induced by the standard anti-estrogen ICI 164,384 (efficacy test compound=(maximal inhibition test compound/maximal inhibition ICI 164,384)). A more detailed description of the methodology can be found in De Gooyer et al., Steroids, 68 (2003) 21-30.

[2] = biological target: T2, estrogen receptor alpha (Homo sapiens, UniProt P03372); assay: ERα downregulation assay in T47D breast cancer cells (ERα ELISA); format: cell-based; details: downregulation of ERα relative to fulvestrant (100%), 1E-5 M, 24 hours, negative = upregulation
T2 construct: endogenous in cells; host or cells: T47D human breast cancer cells (ATCC)
T2 sequence (P03372 1-595): T1 sequence (P03372 1-595)
Excerpt: More specifically, this in vitro bioassay is used to determine the efficacy (fraction of maximal response) of the compound by comparing the data for this compound with those of the reference compound ICI 182,780 (fulvestrant) in the same test (downregulation of fulvestrant is 100% by definition).
A more detailed description of the method used is as follows.
Cell culture. The human epithelial breast cancer cell line T47D (origin: ATCC) was routinely maintained in a 1:1 mixture of Ham's F12 medium and Dulbecco's Modified Eagle Medium (Gibco) enriched with 5% fetal calf serum (Hyclone), 10 mM HEPES pH 7.5 and 100 μg/ml penicillin-streptomycin solution. Cells were grown in 80 cm2 culture flasks (Nunc, Roskilde, Denmark) and kept in an atmosphere of 5% CO2-95% air at 37 degrees Celsius. Cells were subcultured when they reached about 80-90% confluence, resulting in one passage a week. Subculturing includes detaching the cells using Cell Dissociation Buffer [Sigma] and subsequent inoculation at 1:5 or 1:10 in a new Roux flask (175 cc) and\or plating out in Nunclon™ Surface 96 wells microplates. The culture medium needs to be refreshed on day three or four of the incubation, if applicable.
Determination of ERα protein levels: T47D cells in the microplates are incubated with 1E-5 M test compound for 24 hours. The supernatant in all wells is carefully aspirated. Cells are lysed on the microplate and cell lysates are probed for ERα content using an ERα ELISA assay kit (Active Motif).

Row | Compound | IC50 [1] | DR (%) [2]
1 | C=C(c1ccc(OC2CN(CCC)C2)cc1)c1c(-c2ccccc2Cl)noc1-c1ccc(O)cc1 [compound 7ax, 4-(3-(2-chlorophenyl)-4-(1-(4-(1-propylazetidin-3-yloxy)phenyl)vinyl)isoxazol-5-yl)phenol] | 0.794 nM | 33%
2 | CCCN1CC(Oc2ccc([C@H]3c4ccc(O)cc4OC(C)(C)[C@@H]3c3ccccc3)cc2)C1.O=C(O)C(F)(F)F [compound 6p, (3S,4S)-2,2-dimethyl-3-phenyl-4-(4-(1-propylazetidin-3-yloxy)phenyl)chroman-7-ol 2,2,2-trifluoroacetate] | 3.98 nM | 58%
3 | CCN1CC(Oc2ccc(C(=O)c3c(-c4ccc(O)cc4)sc4cc(O)ccc34)cc2)C1.O=C(O)C(F)(F)F [compound 7g, (4-(1-ethylazetidin-3-yloxy)phenyl)(6-hydroxy-2-(4-hydroxyphenyl)benzo[b]-thiophen-3-yl)methanone 2,2,2-trifluoroacetate] | 3.98 nM | 46%
4 | CCCN1CC(Oc2ccc(C(=O)c3c(-c4cccn4C)noc3-c3ccc(O)cc3)cc2)C1.Cl [7al, (5-(4-hydroxyphenyl)-3-(1-methyl-1H-pyrrol-2-yl)isoxazol-4-yl)(4-(1-propylazetidin-3-yloxy)phenyl)methanone hydrochloride] | 7.94 nM | 100%
5 | CCCN1CC(Oc2ccc(C(=O)c3c(-c4ccccc4)sc4cc(O)ccc34)cc2)C1.Cl [compound 7e, (6-hydroxy-2-phenylbenzo[b]thiophen-3-yl)(4-(1-propylazetidin-3-yloxy)-phenyl)methanone hydrochloride] | 2 nM | 96%
6 | CCCN1CC(Oc2ccc(C(=O)c3c(-c4ccccc4Cl)noc3-c3cccc4[nH]ncc34)cc2)C1.O=C(O)C(F)(F)F [compound 7as, (3-(2-chlorophenyl)-5-(1H-indazol-4-yl)isoxazol-4-yl)(4-(1-propylazetidin-3-yl-oxy)phenyl)methanone 2,2,2-trifluoroacetate] | 39.8 nM | 55%
7 | CCCN1CC(Oc2ccc([C@H]3C[C@]4(C)[C@@H](O)CC[C@H]4[C@@H]4CCc5cc(O)ccc5C34)cc2)C1 (stereo partly drawn) [compound 6s, (8S,11S,13S,14S,17S)-13-methyl-11-(4-(1-propylazetidin-3-yloxy)phenyl)-7,-8,9,10,11,12,13,14,15,16,17-decahydro-6H-cyclopenta[a]phenanthrene-3,17-diol] | 2.51 nM | –
8 | CCCN1CC(Oc2ccc(-c3c(-c4c(C)noc4C)noc3-c3ccc(O)cc3)cc2)C1.Cl [compound 7af, 4-(3′,5′-dimethyl-4-(4-(1-propylazetidin-3-yloxy)phenyl)-3,4′-biisoxazol-5-yl)-phenol hydrochloride] | 3.16 nM | 92%
9 | CN1CC(Oc2ccc(C(=O)c3c(-c4ccc(O)cc4)sc4cc(O)ccc34)cc2)C1.Cl [compound 7d, (6-hydroxy-2-(4-hydroxyphenyl)benzo[b]thiophen-3-yl)(4-(1-methylazetidin-3-yloxy)phenyl)methanone hydrochloride] | 2 nM | 48%
10 | C=CCN1CC(Oc2ccc(-c3c(-c4ccc(O)cc4)sc4cc(O)ccc34)cc2)C1.O=C(O)C(F)(F)F [compound 7b, 3-(4-(1-allylazetidin-3-yloxy)phenyl)-2-(4-hydroxyphenyl)benzo[b]thiophen-6-ol 2,2,2-trifluoroacetate] | 0.631 nM | 68%
11 | CN1CC(Oc2ccc(-c3c(-c4ccc(O)cc4)sc4cc(O)ccc34)cc2)C1 [compound 6a, 2-(4-hydroxyphenyl)-3-(4-(1-methylazetidin-3-yloxy)phenyl)benzo[b]thiophen-6-ol 2,2,2-trifluoroacetate] | 0.794 nM | –
12 | CCC(C)N1CC(Oc2ccc(-c3c(-c4ccccc4Cl)noc3-c3ccc(O)cc3)cc2)C1 (stereo not shown) [compound 6i, 4-(4-(4-(1-sec-butylazetidin-3-yloxy)phenyl)-3-(2-chlorophenyl)isoxazol-5-yl)-phenol hydrochloride] | 1 nM | –
13 | CCCN1CC(Oc2ccc(C(=O)c3c(-c4ccccc4Cl)noc3-c3ccccc3)cc2)C1 [compound 7ao, (3-(2-chlorophenyl)-5-phenyl)isoxazol-4-yl)(4-(1-propylazetidin-3-yloxy)-phenyl)methanone hydrochloride] | 25.1 nM | 80%
14 | CCCN1CC(Oc2ccc(Cc3c(-c4ccccc4)c(=O)oc4cc(O)ccc34)cc2)C1 [compound 6r, 7-hydroxy-3-phenyl-4-(4-(1-propylazetidin-3-yloxy)benzyl)-2H-chromen-2-one 2,2,2-trifluoroacetate] | 1.58 nM | –
15 | CCCN1CC(Oc2ccc(C(=O)c3c(-c4ccccc4Cl)noc3-c3cccc(O)c3)cc2)C1.Cl [compound 7ap, (3-(2-chlorophenyl)-5-(3-hydroxyphenyl)isoxazol-4-yl)(4-(1-propylazetidin-3-yloxy)phenyl)methanone hydrochloride] | 2 nM | 90%
16 | CCCN1CC(Oc2ccc(C(=O)c3c(-c4ccc(O)cc4)noc3-c3ccccc3Cl)cc2)C1 [compound 6n, (5-(2-chlorophenyl)-3-(4-hydroxyphenyl)isoxazol-4-yl)(4-(1-propylazetidin-3-yloxy)phenyl)methanone] | 3.98 nM | 62%
17 | CCCN1CC(Oc2ccc(Cc3c(-c4ccccc4)c(=O)oc4cc(OC)ccc34)cc2)C1 [compound 7bf, 7-methoxy-3-phenyl-4-(4-(1-propylazetidin-3-yloxy)benzyl)-2H-chromen-2-one] | 63.1 nM | 33%
18 | CC(C)N1CC(Oc2ccc(C(=O)c3c(-c4ccc(O)cc4)sc4cc(O)ccc34)cc2)C1 [compound 6e, (6-hydroxy-2-(4-hydroxyphenyl)benzo[b]thiophen-3-yl)(4-(1-isopropylazetidin-3-yloxy)phenyl)methanone hydrochloride] | 1.58 nM | –
19 | CCCN1CC(Oc2ccc(-c3c(-c4ccccc4Cl)noc3-c3ccc(O)cc3C)cc2)C1 [compound 6k, 4-(3-(2-chlorophenyl)-4-(4-(1-propylazetidin-3-yloxy)phenyl)isoxazol-5-yl)-3-methylphenol 2,2,2-trifluoroacetate] | 0.501 nM | –
20 | CCCN1CC(Oc2ccc(-c3c(-c4ccccc4C)noc3-c3ccc(O)cc3)cc2)C1 [compound 6j, 4-(4-(4-(1-propylazetidin-3-yloxy)phenyl)-3-o-tolylisoxazol-5-yl)phenol 2,2,2-trifluoroacetate] | 0.398 nM | –
21 | Oc1ccc(-c2onc(-c3ccccc3Cl)c2-c2ccc(OC3CNC3)cc2)cc1 [compound 6f, 4-(4-(4-(azetidin-3-yloxy)phenyl)-3-(2-chlorophenyl)isoxazol-5-yl)phenol] | 15.8 nM | –
22 | C[C@]12C[C@H](c3ccc(OC4CN(CC5CC5)C4)cc3)C3c4ccc(O)cc4CC[C@H]3[C@@H]1CC[C@@H]2O (stereo partly drawn) [compound 6t, (8S,11S,13S,14S,17S)-11-(4-(1-(cyclopropylmethyl)azetidin-3-yloxy)phenyl)-13-methyl-7,8,9,10,11,12,13,14,15,16,17-decahydro-6H-cyclopenta[a]phenanthrene-3,17-diol] | 3.16 nM | –
23 | CCCN1CC(Oc2ccc(-c3c(-c4ccccc4Cl)noc3-c3ccc(O)c(C)c3)cc2)C1 [compound 6l, 4-(3-(2-chlorophenyl)-4-(4-(1-propylazetidin-3-yloxy)phenyl)isoxazol-5-yl)-2-methylphenol 2,2,2-trifluoroacetate] | 0.631 nM | –
24 | CCCCN1CC(Oc2ccc(-c3c(-c4ccccc4Cl)noc3-c3ccc(O)cc3)cc2)C1 [compound 6h, 4-(4-(4-(1-butylazetidin-3-yloxy)phenyl)-3-(2-chlorophenyl)isoxazol-5-yl)-phenol hydrochloride] | 0.631 nM | –

From US9540361B2, “N-substituted azetidine derivatives” (Merck Sharp & Dohme B.V., priority 2010, dated 2017)
